Measured values: patent US11225474B2, “Crystalline salt forms of 3-(1,2,4-triazolo[4,3-a]pyridine-3-ylethynyl)-4-methyl-N-(4-((4-methylpiperazin-1-yl)methyl)-3-trifluoromethylphenyl)benzamide for medical application” (priority 2016, dated 2022)
Like-named read-outs stand apart in the source and are kept apart here.

Tests used:
[1] = Dissolution kinetics (USP Apparatus 1 Basket Method); type: physicochemical; settings: distilled water, 37±1° C., 118 mg salt
Procedure: During further studies of the polymorphous modifications of the methanesulfonic acid salt of 3-(1,2,4-triazolo[4,3-a]pyridine-3-ylethynyl)-4-methyl-N-(4-((4-methylpiperazine-1-yl)methyl)-3-trifluoromethylphenyl)benzamide, the kinetics of dissolution of the free base and the two methanesulfonic acid salt form polymorphous modifications was studied. Dissolution kinetics studies were performed using USP Apparatus 1 Basket Method (USP40, General Chapter <711>. Dissolution), dissolution media volume—700 mL, temperature—37±1° C. paddle stirrers' rotation rate—100 rpm. The test sample dissolution rate was calculated as an average of six repeats. Distilled water was used as the dissolution medium for the polymorphous modifications of 3-(1,2,4-triazolo[4,3-a]pyridine-3-ylethynyl)-4-methyl-N-(4-((4-methylpiperazine-1-yl)methyl)-3-trifluoromethylphenyl)benzamide methanesulfonic acid salt and, and a solution of 12.2 mL of methanesulfonic acid in 500 mL of water was used as the dissolution medium for the free base. Test portions containing 100 mg of 3-(1,2,4-triazolo[4,3-a]pyridine-3-ylethynyl)-4-methyl-N-(4-((4-methylpiperazine-1-yl)methyl)-3-trifluoromethylphenyl)benzamide or 118 mg of 3-(1,2,4-triazolo[4,3-a]pyridine-3-ylethynyl)-4-methyl-N-(4-((4-methylpiperazine-1-yl)methyl)-3-trifluoromethylphenyl)benzamide methanesulfonic acid salt (100 mg calculated as free base) were used for dissolution. In 780 minutes (13 hours) after the beginning of the test, pH of prepared solutions was measured.

Bcr-Abl (E255K) = Bcr-Abl (E255K) (Homo sapiens, UniProt P00519, E255K, form not given); test: Bcr-Abl tyrosine kinase enzyme activity
SKOV-3 = test: Cytotoxicity, ovarian cancer line; type: cell-based, human
HCK = HCK (Homo sapiens, UniProt P08631); test: Human kinase panel at 100 nM; type: biochemical
Sequence of HCK (P08631 whole entry): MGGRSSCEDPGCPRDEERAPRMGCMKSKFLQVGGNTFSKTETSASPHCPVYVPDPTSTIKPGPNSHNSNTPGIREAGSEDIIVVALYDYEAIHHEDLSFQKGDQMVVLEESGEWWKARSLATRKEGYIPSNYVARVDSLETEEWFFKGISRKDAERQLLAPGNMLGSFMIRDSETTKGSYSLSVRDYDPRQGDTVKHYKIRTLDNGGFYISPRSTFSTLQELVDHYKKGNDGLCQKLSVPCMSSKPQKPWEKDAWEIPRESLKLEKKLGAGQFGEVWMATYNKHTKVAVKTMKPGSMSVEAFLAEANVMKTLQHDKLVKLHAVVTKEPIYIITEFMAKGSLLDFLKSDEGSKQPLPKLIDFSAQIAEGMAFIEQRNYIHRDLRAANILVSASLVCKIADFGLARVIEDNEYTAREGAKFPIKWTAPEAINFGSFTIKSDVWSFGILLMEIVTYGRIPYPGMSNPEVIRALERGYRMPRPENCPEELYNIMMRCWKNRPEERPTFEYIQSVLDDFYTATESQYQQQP

CYP1A2 = CYP1A2 (Homo sapiens, UniProt P05177); test: Metabolism study using cytochrome enzyme drugs; type: in vitro ADME
Sequence of CYP1A2 (P05177 whole entry): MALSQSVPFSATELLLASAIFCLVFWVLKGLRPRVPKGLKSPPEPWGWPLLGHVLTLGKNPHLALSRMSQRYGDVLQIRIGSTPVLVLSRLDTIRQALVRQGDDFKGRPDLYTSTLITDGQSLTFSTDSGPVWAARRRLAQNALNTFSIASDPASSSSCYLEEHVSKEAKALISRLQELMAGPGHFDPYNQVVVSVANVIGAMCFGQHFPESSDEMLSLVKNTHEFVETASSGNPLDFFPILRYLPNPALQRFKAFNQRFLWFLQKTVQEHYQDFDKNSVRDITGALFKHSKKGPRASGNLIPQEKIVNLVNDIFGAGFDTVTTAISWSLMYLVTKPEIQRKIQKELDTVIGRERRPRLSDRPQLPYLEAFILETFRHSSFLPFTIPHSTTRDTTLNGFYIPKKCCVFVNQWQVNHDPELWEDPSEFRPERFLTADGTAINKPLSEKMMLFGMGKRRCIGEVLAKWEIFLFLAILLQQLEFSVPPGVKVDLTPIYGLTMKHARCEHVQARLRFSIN

EPHA2 = EPHA2 (Homo sapiens, UniProt P29317); test: Human kinase panel at 100 nM; type: biochemical
EPHA8 = EPHA8 (Homo sapiens, UniProt P29322); test: Human kinase panel at 100 nM; type: biochemical
Sequence of EPHA8 (P29322 28-1005): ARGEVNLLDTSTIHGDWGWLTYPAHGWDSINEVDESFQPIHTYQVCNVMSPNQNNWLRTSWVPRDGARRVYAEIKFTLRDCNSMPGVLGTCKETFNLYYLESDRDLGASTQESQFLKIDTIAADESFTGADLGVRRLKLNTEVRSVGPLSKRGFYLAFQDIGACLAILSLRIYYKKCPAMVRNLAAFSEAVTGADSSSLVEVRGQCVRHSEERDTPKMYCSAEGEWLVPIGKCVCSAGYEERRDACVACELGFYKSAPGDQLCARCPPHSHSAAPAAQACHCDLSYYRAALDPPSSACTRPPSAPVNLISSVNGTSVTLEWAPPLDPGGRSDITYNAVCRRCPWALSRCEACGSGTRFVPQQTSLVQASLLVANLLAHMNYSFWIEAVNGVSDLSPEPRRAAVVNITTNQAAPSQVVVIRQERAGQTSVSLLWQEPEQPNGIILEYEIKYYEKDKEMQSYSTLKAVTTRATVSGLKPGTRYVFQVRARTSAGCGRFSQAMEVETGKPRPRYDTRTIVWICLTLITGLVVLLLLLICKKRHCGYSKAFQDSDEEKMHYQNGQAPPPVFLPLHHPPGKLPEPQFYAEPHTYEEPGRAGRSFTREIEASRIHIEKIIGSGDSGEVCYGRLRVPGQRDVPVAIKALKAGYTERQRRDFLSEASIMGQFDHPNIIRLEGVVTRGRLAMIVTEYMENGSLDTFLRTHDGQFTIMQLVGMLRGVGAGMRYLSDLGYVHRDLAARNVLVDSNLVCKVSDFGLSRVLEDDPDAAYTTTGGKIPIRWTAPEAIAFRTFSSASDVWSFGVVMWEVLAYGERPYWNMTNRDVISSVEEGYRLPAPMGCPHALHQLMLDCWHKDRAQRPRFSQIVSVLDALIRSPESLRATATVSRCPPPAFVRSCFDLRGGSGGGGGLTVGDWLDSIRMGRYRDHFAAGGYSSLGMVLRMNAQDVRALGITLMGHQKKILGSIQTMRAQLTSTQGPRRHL

KCL-22 = test: Cytotoxicity, Ph+ CML model cell line; type: cell-based; settings: Homo sapiens, read-out: IC50 (toxicity)
Bcr-Abl (T315I) = Bcr-Abl (T315I) (Homo sapiens, UniProt P00519, T315I, form not given); test: Bcr-Abl tyrosine kinase enzyme activity; settings: 3 independent experiments
[2] = tested on: Sca1+ marrow cells, expressing p185-T315I^BCR/ABL; test: BCR/ABL-induced chronic myelogenous leukemia model; type: in vivo, C57BL/6N line mice; settings: for Average life: oral, control 55.0 ± 6.3
Procedure: To assess the efficacy of the free base and methanesulfonic acid salt of 3-(1,2,4-triazolo[4,3-a]pyridine-3-ylethynyl)-4-methyl-N-(4-((4-methylpiperazine-1-yl)methyl)-3-trifluoromethylphenyl)benzamide for treating chronic myelogenous leukemia (CML) studies of the compounds' activity on the BCR/ABL-induced CML-like disease in mice were conducted. In the study C57BL/6N line mice were used. […] The efficacy of therapy with 3-(1,2,4-triazolo[4,3-a]pyridine-3-ylethynyl)-4-methyl-N-(4-((4-methylpiperazine-1-yl)methyl)-3-trifluoromethylphenyl)benzamide administered orally as a free base and methanesulfonic acid salt was studied.

Bcr-Abl (F317I) = Bcr-Abl (F317I) (Homo sapiens, UniProt P00519, F317I, form not given); test: Bcr-Abl tyrosine kinase enzyme activity
BLK = BLK (Homo sapiens, UniProt P51451); test: Human kinase panel at 100 nM; type: biochemical
Sequence of BLK (P51451 whole entry): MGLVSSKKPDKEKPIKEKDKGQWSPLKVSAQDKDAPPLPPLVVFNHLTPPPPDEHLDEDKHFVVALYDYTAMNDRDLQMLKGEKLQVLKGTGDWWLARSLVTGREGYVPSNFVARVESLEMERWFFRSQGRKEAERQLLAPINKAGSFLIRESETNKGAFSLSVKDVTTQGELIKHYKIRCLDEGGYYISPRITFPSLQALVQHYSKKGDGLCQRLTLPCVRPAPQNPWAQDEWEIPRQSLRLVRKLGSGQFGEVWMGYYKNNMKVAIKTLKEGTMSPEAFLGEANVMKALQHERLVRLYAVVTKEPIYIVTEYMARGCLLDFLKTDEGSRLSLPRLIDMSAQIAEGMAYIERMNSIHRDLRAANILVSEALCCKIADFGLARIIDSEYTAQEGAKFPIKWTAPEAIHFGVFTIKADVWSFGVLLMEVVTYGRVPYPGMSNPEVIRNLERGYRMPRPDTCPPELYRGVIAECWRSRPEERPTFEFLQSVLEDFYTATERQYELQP

[3] = Daily intragastric administration during 28 days, rats; settings: rat, in vivo, po; for MTD at 28 days: daily intragastric
SR = test: Cytotoxicity, lymphoma line; type: cell-based, human
in vivo = test: in vivo; set-up: species or system C57BL/6 line mice; settings: mouse, plasma; mesylate polymorphous modification I 59 mg/kg (50 mg/kg as free base), single oral, C57BL/6 mice; read-out: Cmax
Procedure: FIGS. 52A-52B. […] The mean values were determined for each time point on the basis of the individual data obtained from three animals.
The results of the study are given in FIG. 52 and in Tables 14 and 15.

mice = test: Acute toxicity studies, mice; type: in vivo
CYP2C19 = CYP2C19 (Homo sapiens, UniProt P33261); test: Metabolism study using cytochrome enzyme drugs; type: in vitro ADME; settings: 2C19
Sequence of CYP2C19 (P33261 whole entry): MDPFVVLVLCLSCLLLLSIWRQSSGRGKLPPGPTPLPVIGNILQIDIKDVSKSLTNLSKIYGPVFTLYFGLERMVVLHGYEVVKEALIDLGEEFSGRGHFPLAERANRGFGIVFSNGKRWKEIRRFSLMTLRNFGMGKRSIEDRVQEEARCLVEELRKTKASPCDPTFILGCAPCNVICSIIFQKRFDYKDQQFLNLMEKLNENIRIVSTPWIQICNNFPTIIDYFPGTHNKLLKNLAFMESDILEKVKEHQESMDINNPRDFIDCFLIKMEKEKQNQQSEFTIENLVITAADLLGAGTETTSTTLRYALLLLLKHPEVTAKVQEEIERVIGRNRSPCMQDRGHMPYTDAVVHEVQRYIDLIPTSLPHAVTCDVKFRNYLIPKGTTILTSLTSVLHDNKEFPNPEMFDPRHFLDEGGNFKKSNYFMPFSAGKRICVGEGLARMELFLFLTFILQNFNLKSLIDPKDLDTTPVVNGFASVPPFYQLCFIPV

[4] = Drug distribution in rat tissues; type: in vivo
[5] = MTD at a single administration to dogs; settings: dog, in vivo
Procedure: The MTD of the drug at a single administration to dogs was 45 mg/kg (38 mg/kg calculated as a free base).

[6] = Stability of polymorph modifications, suspending in acetone for 6 days; type: physicochemical
Procedure: Crystallinity of all samples obtained was studied using the method of X-ray powder diffraction (to study the crystallinity structure). Diffraction patterns were obtained at a temperature of 25° C. […] Survey step 0.02° 2θ, angle range 3-45° 2θ. Diffraction patterns obtained were studied in detail using X'Pert HighScore Plus software package.

potassium hERG channel = potassium hERG channel (Homo sapiens, UniProt Q12809); test: Effect on the ion hERG channel; type: cell-based; settings: tested at 0.1-10 μM, mesylate salt
Sequence of potassium hERG channel (Q12809 whole entry): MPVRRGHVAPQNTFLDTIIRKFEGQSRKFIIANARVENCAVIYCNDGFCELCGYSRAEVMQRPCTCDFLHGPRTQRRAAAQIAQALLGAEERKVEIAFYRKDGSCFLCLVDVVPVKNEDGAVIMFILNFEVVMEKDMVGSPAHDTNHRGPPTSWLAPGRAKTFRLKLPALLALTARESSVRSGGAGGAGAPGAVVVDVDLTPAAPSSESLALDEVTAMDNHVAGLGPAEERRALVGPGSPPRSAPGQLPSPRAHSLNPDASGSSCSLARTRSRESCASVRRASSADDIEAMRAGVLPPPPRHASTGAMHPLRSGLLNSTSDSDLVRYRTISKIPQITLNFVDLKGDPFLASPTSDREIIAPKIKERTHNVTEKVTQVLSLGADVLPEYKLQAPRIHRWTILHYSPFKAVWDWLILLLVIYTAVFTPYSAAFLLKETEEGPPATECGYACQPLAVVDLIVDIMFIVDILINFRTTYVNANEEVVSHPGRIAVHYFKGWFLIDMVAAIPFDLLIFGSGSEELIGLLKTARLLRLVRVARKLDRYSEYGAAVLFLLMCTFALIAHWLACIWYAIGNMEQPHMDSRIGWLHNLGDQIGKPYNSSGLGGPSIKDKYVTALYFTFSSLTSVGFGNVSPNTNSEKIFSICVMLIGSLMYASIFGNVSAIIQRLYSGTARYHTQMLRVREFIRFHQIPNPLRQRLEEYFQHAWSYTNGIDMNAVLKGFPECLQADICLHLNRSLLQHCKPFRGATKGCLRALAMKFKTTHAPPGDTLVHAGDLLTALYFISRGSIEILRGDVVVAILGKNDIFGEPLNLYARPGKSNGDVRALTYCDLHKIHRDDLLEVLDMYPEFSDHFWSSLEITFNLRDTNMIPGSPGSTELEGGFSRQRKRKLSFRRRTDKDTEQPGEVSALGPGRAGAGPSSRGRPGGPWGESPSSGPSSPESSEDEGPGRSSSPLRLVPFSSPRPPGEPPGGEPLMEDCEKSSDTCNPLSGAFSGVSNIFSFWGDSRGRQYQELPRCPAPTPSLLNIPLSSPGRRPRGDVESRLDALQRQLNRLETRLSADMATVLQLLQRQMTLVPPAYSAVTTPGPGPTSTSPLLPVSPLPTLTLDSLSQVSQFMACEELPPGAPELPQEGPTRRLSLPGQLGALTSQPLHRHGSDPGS

[7] = Acute toxicity, oral route, mice; settings: male, CD-1, mouse, in vivo, po, LD50, oral, male CD-1 mice
Source text: (§1) For each drug dose study a group of six animals was used. The study included control groups with the same animal headcount, which received equivalent solvent doses of a 0.5% water solution of methylcellulose. The follow-up period was 28 days. Lab mouse survivability analysis allowed carrying out Bliss analysis and determining the lethal doses of the studied drugs.

CD-1 line mice males = test: Acute toxicity, oral route, mice; settings: for LD10 / LD90: oral, male CD-1 mice
Source text: as §1

BaF3/BCR-ABL E255K = test: Toxicity to transduced BaF3 model tumor cell line; type: cell-based, murine; settings: Mus musculus
[8] = dose of the substance administered

With `CS(=O)(=O)O.Cc1ccc(C(=O)Nc2ccc(CN3CCN(C)CC3)c(C(F)(F)F)c2)cc1C#Cc1nnc2ccccn12` [methanesulfonic acid salt, 3-(1,2,4-triazolo[4,3-a]pyridine-3-ylethynyl)-4-methyl-N-(4-((4-methylpiperazin-1-yl)methyl)-3-trifluoromethylphenyl)benzamide mono methanesulfonic acid salt] as the molecule, how does the “time for 95% to transfer to the solution” value [1] read?
Its value is “less than one minute”.

What about the “time to full dissolution” value [1] of the same molecule?
The value was “less than 4 minutes”.

What about the IC50 (Bcr-Abl (E255K)) of the same molecule?
Its IC50 is 9.5 nM.

And the cytotoxicity (SKOV-3)?
The cytotoxicity was “showed cytotoxicity”.

What about the inhibition at 0.1 µM (HCK) of the same molecule?
The inhibition at 0.1 µM was over 50%.

And the “participation of the isoform in metabolism” value (CYP1A2)?
The value was “does not involve”.

What about the inhibition at 0.1 µM (EPHA2) of the same molecule?
The inhibition at 0.1 µM was over 50%.

And the inhibition at 0.1 µM (EPHA8)?
Its inhibition at 0.1 µM is over 50%.

What about the IC50 (KCL-22) of the same molecule?
Its IC50 is 9 nM.

And the IC50 (Bcr-Abl (T315I))?
The IC50 was 0.78 to 21 nM.

What about the “therapeutic effect compared with the free base” value ([2]; 40 mg/kg (34 mg/kg as free base)) of the same molecule?
The value was “same therapeutic effect as administration of 50 mg/kg of a free base”.

And the “increase of animals' lives compared to the control group” value ([2]; 59 mg/kg (50 mg/kg as free base))?
The value was “almost two-fold increase”.

What about the Average life ([2]; 10 mg/kg salt (8.5 as free base)) of the same molecule?
Its Average life is 65.5 ± 6.7 days.

And the Average life ([2]; 25 mg/kg salt (21 as free base))?
The Average life was 73.9 ± 7.1 days.

And the Average life ([2]; 40 mg/kg salt (34 as free base))?
Its Average life is 90.3 ± 6.9 days.

What about the Average life ([2]; 59 mg/kg salt (50 as free base)) of the same molecule?
Its Average life is 104.5 ± 5.2 days.

And the IC50 (Bcr-Abl (F317I))?
Its IC50 is 2 nM.

And the inhibition at 0.1 µM (BLK)?
Its inhibition at 0.1 µM is over 50%.

What about the Cmax ([3]; Day 28, dose of 50 mg/kg daily intragastric) of the same molecule?
Its Cmax is 0.661 ± 0.289 µg/mL.

What about the AUC ([3]; Day 28, dose of 50 mg/kg daily intragastric, read-out: AUC24) of the same molecule?
Its AUC is 8.6 µg·h/mL.

And the MTD at 28 days ([3]; 2 separate studies, dose of the salt)?
Its MTD at 28 days is 50 to 73 mg/kg.

And the MTD at 28 days ([3]; calculated as a free base)?
The MTD at 28 days was 42 to 62 mg/kg.

What about the cytotoxicity (SR) of the same molecule?
The cytotoxicity was “showed cytotoxicity”.

What about the Cmax (in vivo) of the same molecule?
Its Cmax is 1.1 µg/mL.

What about the LD10 (mice; calculated as the free base) of the same molecule?
Its LD10 is 678 mg/kg.

What about the LD10 (mice; dose of the salt) of the same molecule?
The LD10 was 800 mg/kg.

What about the “participation of the isoform in metabolism” value (CYP2C19) of the same molecule?
The value was “does not involve”.

What about the Kp ([4]; bone marrow, read-out: concentration in bone marrow relative to plasma) of the same molecule?
The Kp was 27.

And the Kp ([4]; brain, read-out: exposure in brain relative to blood plasma exposure)?
The Kp was about 0.2.

And the Kp ([4]; kidneys, read-out: concentration in kidneys relative to plasma)?
The Kp was 34.

And the Kp ([4]; liver, read-out: concentration in liver relative to plasma)?
The Kp was 21.

What about the Kp ([4]; lungs, read-out: concentration in lungs relative to blood plasma) of the same molecule?
The Kp was about 71.

What about the Kp ([4]; spleen, read-out: concentration in spleen relative to plasma) of the same molecule?
Its Kp is 45.

And the MTD ([5]; calculated as a free base)?
The MTD was 38 mg/kg.

And the MTD ([5]; dose of the salt)?
Its MTD is 45 mg/kg.

And the “crystalline structure after suspending in acetone” value ([6]; acetone, 6 days)?
Its value is “remained unchanged”.

And the “Crystallinity in 6 days” value ([6]; suspending in acetone for 6 days, room temperature)?
The value was “Cryst”.

And the IC50 (potassium hERG channel)?
Its IC50 is 7800 nM.

What about the LD50 at 28 days ([7]; calculated as a free base) of the same molecule?
The LD50 at 28 days was 1190 mg/kg.

What about the LD50 at 28 days [7, 8] of the same molecule?
Its LD50 at 28 days is 1400 mg/kg.

What about the “signs of animal intoxication” value (CD-1 line mice males; mouse, in vivo, po) of the same molecule?
Its value is “dyspnea, hypodynamia, tumbled fur, diarrhea, bloating, in some animals—focal alopecia”.

What about the LD10 (CD-1 line mice males; calculated as a free base) of the same molecule?
Its LD10 is “(508*) mg/kg”.

And the LD90 (CD-1 line mice males; calculated as a free base)?
The LD90 was “(1,864*) mg/kg”.

And the LD10 (CD-1 line mice males; [8])?
The LD10 was 600 mg/kg.

And the LD90 (CD-1 line mice males; [8])?
Its LD90 is 2,200 mg/kg.

What about the IC50 (BaF3/BCR-ABL E255K) of the same molecule?
Its IC50 is 25 nM.
